Assay results: paper PMC12516379, “Rotamer-Controlled Self-Immolative Linkers Enable Tunable Release of Neurosteroid Oxime Prodrugs” (ACS Medicinal Chemistry Letters, 2025)
Where two headings read alike, the source gives them in different places.

How the values were obtained:
[1] = Stability in acetate buffer pH 5.0 at room temperature via HPLC (UV); format: physicochemical
Summary of the method: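 Progesterone prodrugs dissolved at 1 mg/mL in PBS (pH 7.03) or 10 mM acetate buffer (pH 5.0), kept at RT and reinjected over time, HPLC-UV AUC at 254 nm. Percent parent remaining; k from ln(%remaining) vs time, pseudo-first-order t1/2 = 0.693/k; duplicates averaged.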

[2] = PBS stability assay at 37 °C via LC-MS/MS; format: physicochemical; settings: 37 °C; for half-life at 3 µM: pH 7.03, PBS
[3] = Plasma stability assay at 37 °C via LC-MS/MS, human plasma; format: in vitro ADME; settings: for half-life at 3 µM: human, plasma;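 as to all read-outs here: prodrugs at 3 µM incubated in human plasma at 37 °C, intact prodrug quantified by LC-MS/MS over time, values are means of duplicate runs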
[4] = Plasma stability assay via LC-MS/MS, rat plasma; format: in vitro ADME; settings: read-out: t1/2 in rat plasma (Table S19) (converted)
Experimental: (§1) Building on our observation that rotamer control in the steric series can be modulated by enzymatic stabilization or activation, we next evaluated whether this effect was species dependent. To investigate this, we performed comparative stability studies by incubating select prodrugs (20a, 20b, 20l and 20t; Figure ) in mouse and rat plasma – two of the most commonly used preclinical species in drug development. This approach allowed us to assess the potential influence of species-specific enzymes on rotamer equilibria and, by extension, prodrug activation rates. The self-immolation profiles for the sterically tuned linker series (20a–b) reveal discernible, species-dependent differences prodrug stability. […] While the precise biochemical drivers remain unclear, this observation warrants further investigation beyond the scope of this work.
(§2) 1.2 Stability in Plasma and PBS via LCMS
(§3) Procaine (positive control) was purchased from Sigma-Aldrich. HPLC grade MeCN, MeOH, H2O, and FA were purchased from Fischer Scientific. Human plasma (cat. No. […]- […]
(§4) 0102242) were obtained from BIOIVT. DPBS 1X (no calcium, no magnesium, pH = 7.03) was purchased from Thermo Fischer Scientific. Stock solutions were prepared in 100% DMSO, and suitable dilutions of target analytes were prepared in 0.1% FA /MeCN for method development.
(§5) For PBS assay Gibco® Dulbecco’s phosphate-buffered saline (DPBS 1X, no calcium, no magnesium, pH = 7.03) was utilized. All experiments were performed in duplicate and results are presented as the average of two experimental replicates.
(§6) Procedure for Plasma Stability Assay
(§7) Test compounds and positive control (i.e. procaine) were dissolved in DMSO to make a 10 mM stock solution and subsequently diluted to 500 μM in 50% MeCN and PBS. This intermediate stock solution was prepared and added immediately prior to the start of each test compound experiment. Plasma was thawed at ambient temperature and aliquoted (663.0 μL) into 1.5 mL Eppendorf tubes. Plasma was incubated at 37 °C for 10 minutes in an incubator shaker at 150 rpm, and the reactions were initiated by addition of the test compound or positive control (4.0 µL, 3 μM). The spiked plasma samples were incubated at 37 °C. For designated time points, 75 µL aliquots were removed from the incubation mixture and immediately quenched in 150 µL of MeCN/0.1%FA with internal standard (ISTD, 2 µM d 5-7-ethoxy coumarin). […] The supernatant was transferred to an LC-MS vial and analyzed by LC/MS-MS. […]
(§8) LC–MS/MS analysis was performed using an Agilent 1260 Infinity II HPLC, coupled with an Agilent G6460 triple quadrupole mass spectrometer (Agilent Technologies, USA). All the data were acquired employing Agilent 6460 Quantitative Analysis data processing software. […]

[5] = Plasma stability assay via LC-MS/MS, mouse plasma; format: in vitro ADME; settings: read-out: t1/2 in mouse plasma (Table S20) (converted)
Experimental: as §1, §2, §3, §4, §5, §6, §7, §8

[6] = Aqueous solubility by visual inspection in acetate buffer (pH 5); settings: sodium acetate buffer, pH 5, aqueous buffer, thermodynamic from solid
Experimental: For the solubility assessment, acetate buffer (pH 5) was selected as the media of choice to ensure prodrug stability during analysis.
High aqueous solubility was determined by visual inspection of 5 mg solid material in 0.5 mL
sodium acetate buffer solution. This media was selected to ensure stability of prodrugs during
dissolution in 50 mg/mL aqueous media.

With `CNCCN(C)C(=O)O/N=C(\C)[C@H]1CC[C@H]2[C@@H]3CCC4=CC(=O)CC[C@]4(C)[C@H]3CC[C@]12C` [20a] the half-life at 1 mg/mL ([1]; pH 5, acetate buffer pH 5.0, RT, 1 mg/mL, HPLC 254 nm, read-out: t1/2 in acetate buffer at RT (Tables S5-S8) (converted)) was > 168 h, the half-life at 1 mg/mL ([1]; pH 5, acetate buffer pH 5.0, rt, HPLC (UV), read-out: Half-life (t½) pH 5.0 rt (converted)) was > 168 h and the half-life at 1 mg/mL ([1]; pH 5, acetate buffer pH 5.0, rt, read-out: t½: pH 5.0, rt (Table S23) (converted)) was > 168 h. The “PBS, 37 °C %rem. at 2h (Table S23)” value ([2]; PBS, 2 h) was 77%, the half-life at 3 µM ([2]; phosphate-buffered saline (DPBS), 3 µM, LC-MS/MS, read-out: t1/2 in PBS at 37 °C (Tables S14-S17) (converted)) was 8.07 h and the half-life at 3 µM ([2]; phosphate-buffered saline (DPBS), LC-MS/MS, read-out: Half-life (t½) PBS 37°C (converted)) was 8.07 h. For the same molecule, the half-life at 3 µM ([2]; phosphate-buffered saline (DPBS), read-out: PBS, 37 °C t½ (Table S23) (converted)) was 8.07 h, the half-life at 3 µM ([2]; phosphate-buffered saline (DPBS), read-out: t1/2 (h) PBS, 37 °C (Tables S25, S26) (converted)) was 8.07 h and the remaining at 2 h, 3 µM ([2]; phosphate-buffered saline (DPBS), pH 7.03, PBS, 2 h, read-out: % Remaining @ 2h, PBS, 37 °C (Tables S25, S26)) was 77%. The “t1/2 in human plasma at 37 °C (Tables S10-S13, S18)” value ([3]; 3 µM, LC-MS/MS) was 2.45 h, the “Plasma, 37 °C %rem. at 2h (Table S23)” value ([3]; 2 h) was 73% and the half-life at 3 µM ([3]; 3 µM, LC-MS/MS, read-out: t1/2 in human plasma at 37 °C (Tables S10-S13, S18) (converted)) was 3.14 h. The half-life at 3 µM ([3]; LC-MS/MS, read-out: Half-life (t½) Plasma 37°C (converted)) was 2.49 h, the half-life at 3 µM ([3]; read-out: Plasma, 37 °C t½ (Table S23) (converted)) was 2.45 h and the half-life at 3 µM [4] was 3.88 h. The half-life at 3 µM [5] was 4.7 h and the solubility [6] was > 10000 µg/mL.
